Source: patent publication US9611262B2, “Substituted 2-azabicycles and their use as orexin receptor modulators” (JANSSEN PHARMACEUTICA NV, priority 2014, dated 2017)

Assays:
rat orexin 1 receptor = rat orexin 1 receptor (Rattus norvegicus, UniProt P56718); experiment: Rat orexin 1 receptor radioligand binding (competitive); conditions: HEK293 cells stably expressing rat orexin 1 receptor; 4 nM radioligand; averages of 2-20 runs; read-out: rOX1 Ki
Description: (§1) The in vitro affinity of the compounds of the invention for the rat/human orexin 1 and human orexin 2 receptors was determined by competitive radioligand binding using [^3H](1-(5-(2-fluoro-phenyl)-2-methyl-thiazol-4-yl)-1-((S)-2-(5-phenyl-(1,3,4)oxadiazol-2-ylmethyl)-pyrrolidin-1-yl)-methanone) (Langmead et al., 2004) and [^3H]EMPA (n-ethyl-2[96-methoxy-pyridin-3-yl)-(toluene-2-sulfonyl)-amino]-N-pyridin-3-ylmethyl acetamide), respectively (Langmead et al., 2004, British Journal of Pharmacology 141:340-346; Malherbe et al., 2004, British Journal of Pharmacology 156:1326-41).
(§2) Data are analyzed using pc-Sandy macro and graphed on Graphpad Prism 5. For analysis, each concentration point is averaged from triplicate values and the averaged values are plotted on Graphpad Prism. The IC50 was determined by applying the following equation (GraphPad Prism 5.0, San Diego) for one site competition where X=log (concentration) and Y=specific binding. Top denotes the total [^3H]— (1-(5-(2-fluoro-phenyl)-2-methyl-thiazol-4-yl)-1-((S)-2-(5-phenyl-(1,3,4)oxadiazol-2-ylmethyl)-pyrrolidin-1-yl)-methanone) binding, bottom denotes the nonspecific [^3H]— (1-(5-(2-fluoro-phenyl)-2-methyl-thiazol-4-yl)-1-((S)-2-(5-phenyl-(1,3,4)oxadiazol-2-ylmethyl)-pyrrolidin-1-yl)-methanone) binding. Graphpad Prism calculates Ki value from IC50 and the pre-determined Kd values for [^3H]— (1-(5-(2-fluoro-phenyl)-2-methyl-thiazol-4-yl)-1-((S)-2-(5-phenyl-(1,3,4)oxadiazol-2-ylmethyl)-pyrrolidin-1-yl)-methanone) and [^3H]-EMPA. The Ki for each compound is then uploaded into 3DX. Each run comprises individual compounds in triplicate. The data in Table 1 and Table 2 represent averages from between 2-20 runs
(§3) Rat and Human Orexin 1 Receptor Radioligand Binding Studies
(§4) Human Embryonic Kidney 293 cells (HEK293) stably expressing rat orexin 1 receptor (Genebank accession number NM_001525) or Chinese ovary cells (CHO) stably expressing human orexin 1 receptor (Genebank accession number […]) were grown to confluency in DMEM (Hyclone, cat # SH30022), 10% FBS, 1× Pen/Strep, 1× sodium pyruvate, 10 mM HEPES, 600 μg/mL G418 and DMEM/F12 (Gibco, Cat #11039), 10% FBS, 1× Pen/Strep, 600 μg/mL G418 media, respectively on 150 cm^2 tissue culture plates, washed with 5 mM EDTA in PBS (HyClone Dulbecco's Phosphate Buffered Saline 1× with Calcium and Magnesium, Cat # SH30264.01, hereafter referred to simply as PBS) and scraped into 50 ml tubes. After centrifugation (2K×G, 5 min at 4° C.), the supernatant was aspirated and the pellets frozen and stored at −80° C. Cells were resuspended in PBS in the presence of 1 tablet of protease inhibitor cocktail (Roche, Cat. #11836145001) per 50 mL. […] Competition binding experiments in 96 well polypropylene plates were performed using [^3H]— (1-(5-(2-fluoro-phenyl)-2-methyl-thiazol-4-yl)-1-((S)-2-(5-phenyl-(1,3,4)oxadiazol-2-ylmethyl)-pyrrolidin-1-yl)-methanone) (Moraveck Corporation, specific activity=35.3 Ci/mmol), diluted to a 10 nM concentration in PBS (4 nM final). Compounds were solubilized in 100% DMSO (Acros Organics, Cat. #61042-1000) and tested over a range of 7 concentrations (from 0.1 nM to 10 μM). The final concentration of DMSO in the reactions is equal to or less than 0.1%. Total and nonspecific binding was determined in the absence and presence of 10 μM almorexant. The total volume of each reaction is 200 μL (20 μL of diluted compounds, 80 μL of [^3H]— (1-(5-(2-fluoro-phenyl)-2-methyl-thiazol-4-yl)-1-((S)-2-(5-phenyl-(1,3,4)oxadiazol-2-ylmethyl)-pyrrolidin-1-yl)-methanone) diluted in PBS and 100 μL of the cell suspension). Reactions were run for 60 min at room temperature and terminated by filtration through GF/C filter plates (PerkinElmer, Cat. #6005174) presoaked in 0.3% polyethylenimine using the cell harvester (PerkinElmer Filtermate). The plates were washed 3 times by aspirating 30 ml PBS through the plates. Plates were dried in 55° C. oven for 60 min, scintillation fluid was added, and the radioactivity was counted on a Topcount (Packard). […]

human orexin 1 receptor = human orexin 1 receptor (Homo sapiens (Human), UniProt O43613); experiment: Human orexin 1 receptor radioligand binding (competitive); conditions: CHO cells stably expressing human orexin 1 receptor; 4 nM radioligand; averages of 2-20 runs; read-out: hOX1 Ki
Description: as §1, §2, §3, §4

human orexin 2 receptor = human orexin 2 receptor (Homo sapiens (Human), UniProt O43614); experiment: Human orexin 2 receptor radioligand binding ([3H]-EMPA competition); conditions: HEK293 stably expressing human orexin 2 receptor; 2 nM [3H]-EMPA; averages of 2-20 runs; read-out: hOX2 Ki
How it was run: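 Membranes-free whole HEK293 cells stably expressing human OX2 receptor incubated with [3H]-EMPA and compound (7 concentrations, 0.1 nM–10 μM, ≤0.1% DMSO) for 60 min at room temperature; nonspecific binding with 10 μM almorexant. Filtration and scintillation counting; one-site IC50 converted to Ki using predetermined Kd, triplicates averaged over 2-20 runs.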

Chain of human orexin 2 receptor (O43614 whole entry): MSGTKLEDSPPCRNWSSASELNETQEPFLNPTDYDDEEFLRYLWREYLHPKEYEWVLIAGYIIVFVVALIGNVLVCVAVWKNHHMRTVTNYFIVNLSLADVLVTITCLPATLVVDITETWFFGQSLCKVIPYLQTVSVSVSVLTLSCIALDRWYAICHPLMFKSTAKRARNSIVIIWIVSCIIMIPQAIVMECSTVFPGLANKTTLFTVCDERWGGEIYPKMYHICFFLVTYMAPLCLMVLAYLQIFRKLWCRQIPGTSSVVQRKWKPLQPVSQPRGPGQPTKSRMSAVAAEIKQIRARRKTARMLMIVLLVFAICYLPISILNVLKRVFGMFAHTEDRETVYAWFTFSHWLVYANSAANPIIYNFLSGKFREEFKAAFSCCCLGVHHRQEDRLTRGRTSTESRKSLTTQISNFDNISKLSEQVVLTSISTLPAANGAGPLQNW
Chain of human orexin 1 receptor (O43613 whole entry): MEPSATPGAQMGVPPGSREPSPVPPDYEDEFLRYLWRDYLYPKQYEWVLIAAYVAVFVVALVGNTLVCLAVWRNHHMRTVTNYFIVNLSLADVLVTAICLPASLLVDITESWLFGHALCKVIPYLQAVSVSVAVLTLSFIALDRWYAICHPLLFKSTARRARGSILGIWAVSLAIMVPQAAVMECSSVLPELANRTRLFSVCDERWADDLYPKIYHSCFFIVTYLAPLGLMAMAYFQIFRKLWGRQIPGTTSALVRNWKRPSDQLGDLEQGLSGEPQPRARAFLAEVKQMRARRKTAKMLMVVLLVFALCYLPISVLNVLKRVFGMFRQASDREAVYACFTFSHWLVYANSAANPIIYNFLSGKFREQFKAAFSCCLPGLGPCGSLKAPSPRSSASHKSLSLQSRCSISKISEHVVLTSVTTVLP

Ki (rat orexin 1 receptor) [µM] | Ki (human orexin 1 receptor) [µM] | Ki (human orexin 2 receptor) [µM] | Compound
0.051 | 0.045 | – | CC(C)CC1C2CC(Oc3ccc(C(F)(F)F)cn3)C(C2)N1C(=O)c1ccccc1-n1nccn1 (racemic) [Example 207, (R/S)-[2-isobutyl-5-[[5-(trifluoromethyl)-2-pyridyl]oxy]-3-azabicyclo[2.2.1]heptan-3-yl]-[2-(triazol-2-yl)phenyl]methanone]
0.004 | 0.002 | – | CCC1C2CC(Oc3ccc(C(F)(F)F)cn3)C(C2)N1C(=O)c1ccccc1-n1nccn1 (racemic) [Example 213, (R/S)-[2-ethyl-5-[[5-(trifluoromethyl)-2-pyridyl]oxy]-3-azabicyclo[2.2.1]heptan-3-yl]-[2-(triazol-2-yl)phenyl]methanone]
0.004 | 0.002 | – | C[C@@H]1[C@H]2C[C@@H](Oc3cnc4ccccc4n3)[C@H](C2)N1C(=O)c1cccc(F)c1-n1nccn1 (relative stereo) [Example 184, (3-fluoro-2-(2H-1,2,3-triazol-2-yl)phenyl)((1S*,3R*,4R*,6R*)-3-methyl-6-(quinoxalin-2-yloxy)-2-azabicyclo[2.2.1]heptan-2-yl)methanone]
0.003 | 0.003 | – | C[C@@H]1[C@H]2C[C@@H](Oc3ccc(Cl)cn3)[C@H](C2)N1C(=O)c1ccccc1-n1nccn1 [Example 121, [(1R,2R,4S,5R)-5-[(5-chloro-2-pyridyl)oxy]-2-methyl-3-azabicyclo[2.2.1]heptan-3-yl]-[2-(triazol-2-yl)phenyl]methanone]
0.008 | 0.004 | – | [2H]C1([2H])[C@H]2C[C@@H]([C@@H]1Oc1ccc(Cl)cn1)N(C(=O)c1ccccc1-n1nccn1)[C@@H]2C [Example 195, [(1R,3R,4S,6R)-3-[(5-chloro-2-pyridyl)oxy]-2,2-dideuterio-6-methyl-5-azabicyclo[2.2.1]heptan-5-yl]-[2-(triazol-2-yl)phenyl]methanone]

More lines, now with the values behind:

Compound | Ki (rat orexin 1 receptor) [µM] | Ki (human orexin 1 receptor) [µM] | Ki (human orexin 2 receptor) [µM]
Cc1ccc(Br)c(C(=O)N2C(C)C3CC(Nc4cnc(C(F)(F)F)cn4)C2C3)n1 (racemic) [Example 7, (R/S)-(3-bromo-6-methylpyridin-2-yl)(3-methyl-6-((5-(trifluoromethyl)pyrazin-2-yl)amino)-2-azabicyclo[2.2.1]heptan-2-yl)methanone] | 0.125 | 0.144 | 1.2
CC1C2CC(Oc3ccc(C(F)(F)F)cn3)C(C2)N1C(=O)c1cccc(F)c1-c1ncco1 (racemic) [Example 12, (R/S)-(3-fluoro-2-(oxazol-2-yl)phenyl)(3-methyl-6-((5-(trifluoromethyl)pyridin-2-yl)oxy)-2-azabicyclo[2.2.1]heptan-2-yl)methanone] | 0.008 | 0.008 | –
CC1C2CC(Oc3ccc(C(F)(F)F)cn3)C(C2)N1C(=O)c1ncccc1-c1ncccn1 (racemic) [Example 14] | 0.011 | 0.013 | 3.7
CC1C2CC(Oc3ccc(C(F)(F)F)cn3)C(C2)N1C(=O)c1ccccc1-c1ncc(F)cn1 (racemic) [Example 19, (R/S)-(2-(5-fluoropyrimidin-2-yl)phenyl)(3-methyl-6-((5-(trifluoromethyl)pyridin-2-yl)oxy)-2-azabicyclo[2.2.1]heptan-2-yl)methanone] | 0.01 | 0.029 | –
Cc1ccc(-n2nccn2)c(C(=O)N2C(C)C3CC(Oc4cnc(C(F)(F)F)cn4)C2C3)n1 (racemic) [Example 42, (R/S)-(6-methyl-3-(2H-1,2,3-triazol-2-yl)pyridin-2-yl)(3-methyl-6-((5-(trifluoromethyl)pyrazin-2-yl)oxy)-2-azabicyclo[2.2.1]heptan-2-yl)methanone] | 0.055 | 0.045 | > 10
Cc1ccc(-c2ncccn2)c(C(=O)N2C(C)C3CC(Oc4cnc(C(F)(F)F)cn4)C2C3)n1 (racemic) [Example 44, (R/S)-(6-methyl-3-(pyrimidin-2-yl)pyridin-2-yl)(3-methyl-6-((5-(trifluoromethyl)pyrazin-2-yl)oxy)-2-azabicyclo[2.2.1]heptan-2-yl)methanone] | 0.071 | 0.055 | –
C[C@@H]1[C@H]2C[C@@H](Oc3ccc(C(F)(F)F)cn3)[C@H](C2)N1C(=O)c1ccc(F)cc1-n1nccn1 (relative stereo) [Example 28, (4-fluoro-2-(2H-1,2,3-triazol-2-yl)phenyl)((1S*,3R*,4R*,6R*)-3-methyl-6-((5-(trifluoromethyl)pyridin-2-yl)oxy)-2-azabicyclo[2.2.1]heptan-2-yl)methanone] | 0.006 | 0.005 | –
COc1ccc(C(=O)N2[C@H](C)[C@H]3C[C@@H](Oc4ccc(C(F)(F)F)cn4)[C@@H]2C3)c(-n2nccn2)c1 (relative stereo) [Example 31, (4-methoxy-2-(2H-1,2,3-triazol-2-yl)phenyl)((1S*,3R*,4R*,6R*)-3-methyl-6-((5-(trifluoromethyl)pyridin-2-yl)oxy)-2-azabicyclo[2.2.1]heptan-2-yl)methanone] | 0.006 | 0.006 | –
Cc1cnc(C(=O)N2[C@H](C)[C@H]3C[C@@H](Oc4ccc(C(F)(F)F)cn4)[C@@H]2C3)c(-c2ncccn2)c1 (relative stereo) [Example 35, (5-methyl-3-(pyrimidin-2-yl)pyridin-2-yl)((1S*,3R*,4R*,6R*)-3-methyl-6-((5-(trifluoromethyl)pyridin-2-yl)oxy)-2-azabicyclo[2.2.1]heptan-2-yl)methanone] | 0.004 | 0.007 | –
CC1C2CC(Nc3cnc(C(F)(F)F)cn3)C(C2)N1C(=O)c1cccc(F)c1-c1ncccn1 (single isomer, unassigned) [Example 4, (R/S)-(3-fluoro-2-(pyrimidin-2-yl)phenyl)(3-methyl-6-((5-(trifluoromethyl)pyrazin-2-yl)amino)-2-azabicyclo[2.2.1]heptan-2-yl)methanone] | 0.056 | 0.059 | –
CC1C2CC(Oc3ccc(C(F)(F)F)cn3)C(C2)N1C(=O)c1ccccc1-c1ncc(F)cn1 (single isomer, unassigned) [Example 19B, (2-(5-fluoropyrimidin-2-yl)phenyl)((1S*,3R*,4R*,6R*)-3-methyl-6-((5-(trifluoromethyl)pyridin-2-yl)oxy)-2-azabicyclo[2.2.1]heptan-2-yl)methanone] | 0.005 | 0.006 | –
CC1C2CC(Nc3cnc(C(F)(F)F)cn3)C(C2)N1C(=O)c1cccc(F)c1-c1ncccn1 (single isomer, unassigned) [Example 67, (R/S)-(3-fluoro-2-(pyrimidin-2-yl)phenyl)(3-methyl-6-((5-(trifluoromethyl)pyrazin-2-yl)amino)-2-azabicyclo[2.2.1]heptan-2-yl)methanone] | 0.016 | 0.021 | –
